For 17 compounds, activity, IC50 and activation results are on record in patent US20240166641A1, “HETEROCYCLES AND USES THEREOF” (Kumquat Biosciences Inc., priority 2021, published 2024).

One assay relates to OT-1 cells. Briefly: T-cell activation: intracellular production of IFNγ and TNFα in exhausted OT-1 cells. Type of assay: cell-based. The conditions noted are these: 10 uM compound, OT-1 cells restimulated with 1 μM OVA, read-out: % TNFa + /IFNg + production in compound-treated cells (uM compound) relative to negative control (DMSO). How it is done: 1*10^6 OT-1 cells are seeded in a 24well in a volume of 1 mL of RPMI/10% FCS, and activated with 10 nM OVA protein for 48 h. Cells are then split 1:4 into 96well plates after two washes in warm media. To induce exhaustion, cells are then expanded for 3 days in the presence of vehicle control or a compound described herein (e.g., PTPN2 inhibitor) various concentrations, as well as 5 ng/ml IL-7 and 5 ng/ml IL-15, with the addition of fresh OVA on each day. After this point, cells are treated with Brefeldin A and restimulated with 1 μM of OVA for 4-6h, and cells are stained to assess production of IFNγ and TNFα intracellularly by flow cytometry. The results are shown as increase in percentage production of IFNγ and TNFα in cells treated with an exemplified compound at 10 uM, relative to a negative control (DMSO) of cells without being treated with the compound but merely DMSO (a solvent in which exemplified compounds are dissolved). See Table 10 below summarizes percentage increase in IFNγ and TNFα intracellular production in cells treated with an exemplified compound (at 10 uM) or without it, relative to a negative control (DMSO).

Another assay deals with T1, PTP1B (Homo sapiens, UniProt P18031).
T1 sequence (P18031 1-435): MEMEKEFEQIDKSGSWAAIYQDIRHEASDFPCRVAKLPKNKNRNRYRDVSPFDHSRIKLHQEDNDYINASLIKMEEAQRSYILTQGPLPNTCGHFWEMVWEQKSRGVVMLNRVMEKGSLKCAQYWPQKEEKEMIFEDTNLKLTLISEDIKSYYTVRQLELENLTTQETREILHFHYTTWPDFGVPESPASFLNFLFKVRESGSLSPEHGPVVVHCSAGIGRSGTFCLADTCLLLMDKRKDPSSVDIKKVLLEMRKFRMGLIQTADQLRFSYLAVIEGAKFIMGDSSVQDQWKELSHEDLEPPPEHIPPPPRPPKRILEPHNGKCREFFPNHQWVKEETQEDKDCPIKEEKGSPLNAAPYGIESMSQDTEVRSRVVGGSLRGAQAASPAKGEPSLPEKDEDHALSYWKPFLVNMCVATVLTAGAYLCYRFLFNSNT
The assay is described as follows: Phosphatase activity assay (Bio-Biochem-DiFMUP), PTP1B. Type of assay: biochemical. The settings on record: DiFMUP substrate, room temperature. An excerpt:
(§1) The selectivity and potency of a small molecule PTPN2 inhibitor as provided herein (e.g., a derivative of Formula I, II, III, IV; or sub-formulae thereof) against one or more protein tyrosine phosphatase (PTP) enzymes, and specifically against PTPN2, can be assessed in various ways. The one or more PTP enzymes comprise Mycobacterium protein tyrosine phosphatase A (mPTPA), Mycobacterium protein tyrosine phosphatase B (mPTPB), PTPN1 (i.e., PTP1B), PTPN2 (i.e., TC-PTP), SHP-1, SHP-2, FAP-1, Meg2, HePTP, Laforin, VHX, VHR, LMWPTP, Cdcl4A, LAR, CD45, PTPRG, a fragment thereof, a variant thereof, and a combination thereof. Selectivity and potency of a small molecule PTPN2 inhibitor is evaluated using a PTP activity inhibition assay. The assay is performed using a buffer comprising 50 millimolar (mM) Bis-Tris (pH=6.3), 2 mM EDTA, and 5 mM N,N′-dimethyl-N,N′-bis(mercaptoacetyl)hydrazine (DMH). The assay is performed using a phosphated substrate, e.g., 10 mM fluorescein diphosphate (FDP) that is stored at −20° C. Alternatively or in addition to, the assay is performed using 10 mM DiFMUP as a phosphated substrate. Each PTP enzyme is diluted in an enzyme dilution buffer comprising 50 mM Bis-Tris (pH=6.3), 2 mM EDTA, 5 mM DMH, 20% (vol./vol.) glycerol, and 0.01% (vol./vol.) Triton X-100.
(§2) The assay is carried out at room temperature in 96 well plates. A reaction mixture of 170 microliter (μL) of the assay buffer comprising 10 μM FDP or DiFMIUP is added to each well. A 10 μL volume of (i) a compound disclosed herein (e.g., PTPN2 inhibitor) dissolved in DMSO at one of 10 concentrations from a serial dilution or (ii) DMSO alone for control is added to each well. The reaction is initiated by adding 20 μL of a PTP enzyme (e.g., PTPN2) that is diluted in the enzyme dilution buffer. The phosphatase activity of the PTP enzyme is assessed by monitoring appearance of a fluorescent product (e.g., fluorescein monophosphate (FMP) from FDP, or 6,8-difluoro-7-hydroxyl-4-coumarin (DiFMU) from DiFMUP) continuously for about 15 to 30 minutes, using the SpectraMax® Gemini™ XPS Microplate Spectrofluorometer (Molecular Devices®) with excitation of 440 nm and emission at 530 nm (cutoff filter at 525 nm) for FMP and excitation at 360 nm and emission at 450 nm (cutoff filter at 435 nm) for DiFMU. The rate (e.g., the initial rate) of FMP or DiFMU formation is plotted against the concentration of the small molecule PTPN2 inhibitor, and the data is fitted (e.g., using a 4-parameter equation) to determine the inflection point of the fit as the IC50 of the small molecule PTPN2 inhibitor for a specific enzyme. Table 6 summarizes the IC50 values of compounds disclosed herein against PTPN2 and PTPN1.

In the next assay the target is T2, PTPN2 (Homo sapiens, UniProt P17706).
T2 sequence (P17706 1-415): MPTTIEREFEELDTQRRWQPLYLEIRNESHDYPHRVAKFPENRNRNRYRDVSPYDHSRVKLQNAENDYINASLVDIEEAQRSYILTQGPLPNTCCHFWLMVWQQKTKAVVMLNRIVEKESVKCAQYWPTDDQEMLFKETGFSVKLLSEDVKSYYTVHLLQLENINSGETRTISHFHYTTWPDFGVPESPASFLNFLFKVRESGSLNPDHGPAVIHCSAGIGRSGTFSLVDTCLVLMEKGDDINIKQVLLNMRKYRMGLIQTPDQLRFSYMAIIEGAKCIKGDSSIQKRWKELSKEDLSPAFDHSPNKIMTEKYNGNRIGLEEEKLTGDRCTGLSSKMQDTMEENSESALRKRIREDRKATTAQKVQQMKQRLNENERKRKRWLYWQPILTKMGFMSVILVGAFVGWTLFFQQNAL
The assay is described as follows: Phosphatase activity assay (Bio-Biochem-DiFMUP), PTPN2. Type of assay: biochemical. The conditions noted are these: DiFMUP substrate, room temperature.
Description: as §1, §2

The subject of assay [1] is B16F10 mouse melanoma cells. The assay is described as follows: MHC expression associated with IFNγ signaling, flow cytometry. Type of assay: cell-based. The conditions noted are these: B16-F10, 3 uM compound, 48 hours, normalized to DMSO/with IFNγ control, read-out: % MHC in cells treated with Compound at 3 uM relative to negative control (DMSO). How it is done:
B16F10 mouse melanoma cells (ATCC Cat #CRL-6475, Manassas, VA) are seeded at approximately a density of 500 cells per well in a 384-well clear bottom plate (Corning Cat #3765, Corning, 5 NY) in 25 μL total volume of DMEM+10% FBS (Sigma Cat #D6429 and Sigma Cat #F4135, St. Louis, MO). Cells are allowed to adhere overnight at 37° C.+5% CO2. On the following day, 12.5 μL of mouse IFNγ (RD systems Cat #485-MI/CF, Minneapolis, MN) is added to half of the plate (columns 13-24) at a concentration of 2 ng/mL for a final assay concentration of 0.5 ng/mL of IFNγ. Media only (12.5 μL of DMEM+10% FBS) is added to the remainder of the 10 plate (columns 1-12). Next, compounds resuspended in DMSO (Sigma Cat #D2650) at 100 mM are diluted in semi-log dilutions in DMSO ranging from 100 mM to 0.001 mM and DMSO only controls are included. The compound/DMSO dilutions are further diluted 1:250 in DMEM+10% FBS, and 12.5 μL of these dilutions are added in triplicates to cells of both treatment arms (with and without IFNγ). Compounds are only dosed in the inner 240 wells, avoiding the outer 2-well perimeter of the plate to minimize edge effects. Finally, the plate is loaded into an IncuCyte® S3 Live Cell Analysis System (Essen Bioscience-Sartorius, Ann Arbor, MI) maintained in a 37° C.+5% CO2 incubator, allowed to equilibrate for 2 hours, and treated for 48 hours. MHC levels are measured by flow cytometry using a FITC anti-mouse H-2kb antibody (clone AF6-88.5), and levels are normalized based on DMSO/with IFNγ control. Table 7 below summarizes the percentage in MHC expression in cells treated with or without compounds disclosed herein at a specified concentration.
(In general: A flow cytometer gives signals particle by particle.)

Bounds are passed on as bounds.

As for `CC(C)CCNc1ccc2cc(O)c(N3CC(=O)NS3(=O)=O)cc2n1` [Compound 113, 5-(6-hydroxy-2-(isopentylamino)quinolin-7-yl)-1,2,5-thiadiazolidin-3-one 1,1-dioxide], the activity at 10 µM in the assay on OT-1 cells turned out to be 210%. The IC50 on PTP1B and at PTPN2 was at most 1000 nM in each case.

In the case of `CC(C)CCNc1cc2cc(N3CC(=O)NS3(=O)=O)c(O)cc2n(C)c1=O` [Compound 120], the activity at 10 µM in the assay on OT-1 cells amounted to 194%. The IC50 at PTP1B and at PTPN2 was at most 1000 nM each time.

As to `CC(C)CCNC(=O)c1cc2c(F)c(N3CC(=O)NS3(=O)=O)c(O)cc2s1` [Compound 130, 5-(1,1-dioxido-4-oxo-1,2,5-thiadiazolidin-2-yl)-4-fluoro-6-hydroxy-N-isopentylbenzo[b]thiophene-2-carboxamide], the IC50 at PTP1B and at PTPN2 was at most 1000 nM each time. In addition, in assay [1], the activation at 3 µM was over 10%.

Consider `O=C1CN(c2c(O)cc3ccc(OCC4CCOC4)nc3c2F)S(=O)(=O)N1` (stereo not shown) [Compound 139], for which the activity at 10 µM in the assay on OT-1 cells is 226%. Further, the half-maximal inhibitory concentration (IC50) at PTP1B and at PTPN2 was at most 1000 nM in each case. In addition, the activation at 3 µM in assay [1] is over 10%.

With `O=C1CN(c2c(O)cc3ccc(OCC4CCCOC4)nc3c2F)S(=O)(=O)N1` (stereo not shown) [Compound 144], the activity at 10 µM with OT-1 cells came out at 251%. Also, the IC50 on PTP1B and at PTPN2 was at most 1000 nM in each case. Further, the activation at 3 µM in assay [1] was over 10%.

With `COC(C)(C)CCOc1ccc2cc(O)c(N3CC(=O)NS3(=O)=O)c(F)c2n1` [Compound 149], the activity at 10 µM in the assay on OT-1 cells was found to be 207%. Besides, the IC50 at PTP1B and at PTPN2 was at most 1000 nM throughout. The activation at 3 µM in assay [1] is over 10%.

Take `CC(C)(C)CCOc1ccc2cc(O)c(N3CC(=O)NS3(=O)=O)c(F)c2n1` [Compound 150]: the activity at 10 µM in the assay on OT-1 cells is 260%. Also, the IC50 on PTP1B and on PTPN2 was at most 1000 nM in each case.

Regarding `O=C1CN(c2c(O)cc3ccc(OCCc4ccccc4)nc3c2F)S(=O)(=O)N1` [Compound 151], the activity at 10 µM in the assay with OT-1 cells worked out at 227%. Moreover, the IC50 on PTP1B and on PTPN2 was at most 1000 nM in each case. Further, the activation at 3 µM in assay [1] was 1 to 10%.

Turning to `N#CCCCOc1ccc2cc(O)c(N3CC(=O)NS3(=O)=O)c(F)c2n1` [Compound 155], the IC50 on PTP1B and at PTPN2 was at most 1000 nM in each case. Besides, the activation at 3 µM in assay [1] is over 10%.

For the compound `O=C1CN(c2c(O)cc3ccc(OCCC4CCCC4)nc3c2F)S(=O)(=O)N1` [Compound 158], the activity at 10 µM in the assay with OT-1 cells was 152%. Besides, the IC50 on PTP1B and at PTPN2 was at most 1000 nM each time. In addition, the activation at 3 µM in assay [1] is over 10%.

As to `CC(C)(C)CCOc1ccc2cc(O)c(N3CC(=O)NS3(=O)=O)cc2n1` [Compound 183], the activity at 10 µM in the assay with OT-1 cells was determined as 162%. Moreover, the IC50 at PTP1B and at PTPN2 was at most 1000 nM each time. For the same compound, the activation at 3 µM in assay [1] was under 1%.

For the compound `CC(C)CCNc1cc2c(F)c(N3CC(=O)NS3(=O)=O)c(O)cc2n(C)c1=O` [Compound 186], the IC50 at PTP1B and on PTPN2 was at most 1000 nM in each case. The activation at 3 µM in assay [1] is over 10%.

Consider `CC(C)CCCc1cc2c(F)c(N3CC(=O)NS3(=O)=O)c(O)cc2n(C)c1=O` [Compound 190], for which the IC50 on PTP1B and at PTPN2 was at most 1000 nM in each case. For the same compound, in assay [1], the activation at 3 µM lay within 1 to 10%.

Turning to `Cn1c(=O)c(NCCC2CCC(F)(F)CC2)cc2cc(N3CC(=O)NS3(=O)=O)c(O)cc21` [Compound 201], the IC50 on PTP1B and on PTPN2 was at most 1000 nM throughout.

With `Cn1c(=O)c(NCC2(C#N)CC2)cc2cc(N3CC(=O)NS3(=O)=O)c(O)cc21` [Compound 202], the IC50 (as a rule, the concentration that inhibits the measured activity by half) at PTP1B is at most 1000 nM; on PTPN2, 1000 to 10000 nM.

Take `CC(C)CCNc1cc2cc(N3C(C)C(=O)NS3(=O)=O)c(O)cc2n(C)c1=O` (stereo not shown) [Compound 203]: the IC50 on PTP1B and on PTPN2 was 1000 to 10000 nM each time.

As to `O=C1CN(c2c(O)cc3ccc(OCCc4ccc(F)cc4)nc3c2F)S(=O)(=O)N1` [Compound 204, 5-(8-fluoro-2-(4-fluorophenethoxy)-6-hydroxyquinolin-7-yl)-1,2,5-thiadiazolidin-3-one 1,1-dioxide], in the assay on OT-1 cells, the activity at 10 µM worked out at 430%. Moreover, the concentration for half-maximal inhibition (IC50) on PTP1B and at PTPN2 was at most 1000 nM each time. The activation at 3 µM in assay [1] fell in the range of 1 to 10%.
